These results are taken from patent US9957274B2, “Indane inhibitors of EED and methods of their use” (AbbVie Inc., priority 2016, dated 2018).

The subject of one test is Pfeiffer cells. Description: CTG cell viability assay (CellTiter-Glo). Format: cell-based. The conditions noted are these: Homo sapiens, 240 h; Pfeiffer cells, 10 days with compound, CellTiter-Glo; read-out: Cell Proliferation IC50. On the procedure: 1,000 cells were plated into each well of 96-well Corning CellBing cell culture plates and incubated overnight at 37° C. in a humidified CO2 incubator. […] The cell culture plates were then incubated for 10 more days. CTG cell viability assay was performed on the cell culture samples by using CellTiter-Glo® Luminescent Cell Viability Assay Kit (Promega).
(In general: Cellular ATP, detected with luciferase, serves as a proxy for viable cell number.)

A further test concerns the target EED (Homo sapiens, UniProt O75530). Description: EED TR-FRET Binding Assay (modified LanthaScreen competition assay). On the procedure: Compounds were tested in a modified LanthaScreen competition assay.
The following buffer was used to set up the binding reactions: 20 mM Tris-HCl pH 7.5, 200 mM NaCl, 0.01% Tween-20, 10 uM DTT (dithiothreitol), and 0.05% BSA (bovine serum albumin), with the DTT and BSA added fresh prior to initiating the binding assay. […] The reactions were then incubated for 1 hour at 25° C. in a humidified chamber prior to detection on the Perkin Elmer Envision plate reader using a Lanthascreen TR-FRET protocol.

Chain of EED (O75530 whole entry): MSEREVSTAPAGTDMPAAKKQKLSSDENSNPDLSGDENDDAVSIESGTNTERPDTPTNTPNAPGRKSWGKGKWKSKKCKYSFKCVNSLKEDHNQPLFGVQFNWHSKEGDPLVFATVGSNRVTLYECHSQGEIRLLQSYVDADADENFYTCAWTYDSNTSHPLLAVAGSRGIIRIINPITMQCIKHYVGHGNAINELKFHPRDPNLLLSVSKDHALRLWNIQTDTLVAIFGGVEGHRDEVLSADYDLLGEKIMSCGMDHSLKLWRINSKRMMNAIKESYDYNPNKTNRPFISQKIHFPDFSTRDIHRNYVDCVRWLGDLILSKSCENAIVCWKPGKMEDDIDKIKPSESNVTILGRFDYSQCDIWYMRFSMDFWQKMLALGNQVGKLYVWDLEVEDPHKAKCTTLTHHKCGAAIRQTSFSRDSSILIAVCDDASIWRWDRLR

On to `Cc1nnc(-c2ccc([C@@H]3CN(C4CCc5cccc(F)c54)C[C@H]3N(C)C)cc2)o1` (mixture of isomers) [Example 68, rac-(3S,4R)-1-(7-fluoro-2,3-dihydro-1H-inden-1-yl)-N,N-dimethyl-4-[4-(5-methyl-1,3,4-oxadiazol-2-yl)phenyl]pyrrolidin-3-amine], for which the IC50 turned out to be 491 nM with Pfeiffer cells and 2.37 nM on EED.
The like results for `CN(C)[C@H]1CN(C2CCc3cccc(F)c32)C[C@@H]1c1cn(C)c2c(C(=O)N3CCC[C@H]3C(N)=O)cccc12` (mixture of isomers) [Example 117, rac-1-{3-[(3S,4R)-4-(dimethylamino)-1-(7-fluoro-2,3-dihydro-1H-inden-1-yl)pyrrolidin-3-yl]-1-methyl-1H-indole-7-carbonyl}-L-prolinamide] were, in that order, 111 nM and 1.26 nM.
On the same counts, the results for `CN(C)[C@@H]1CN(C2CCc3cccc(F)c32)C[C@H]1c1ccc(C(N)=O)cc1` (mixture of isomers) [Example 35, rac-4-[(3R,4S)-4-(dimethylamino)-1-(7-fluoro-2,3-dihydro-1H-inden-1-yl)pyrrolidin-3-yl]benzamide] are more than 10000 nM and 6.8 nM.
On the same counts, the results for `CN(C)[C@H]1CN(C2CCc3cccc(F)c32)C[C@@H]1c1cn(C)c2c(C(=O)O)cccc12` (stereo partly drawn) [Example 79, 3-[(3S,4R)-4-(dimethylamino)-1-(7-fluoro-2,3-dihydro-1H-inden-1-yl)pyrrolidin-3-yl]-1-methyl-1H-indole-7-carboxylic acid] are 1020 nM and 2.45 nM.
For the molecule `CC(=O)N1CCN(c2ccc([C@H]3CN(C4CCc5cccc(F)c54)C[C@@H]3N(C)C)cc2C)CC1` (mixture of isomers) [Example 60, rac-1-(4-{4-[(3S,4R)-4-(dimethylamino)-1-(7-fluoro-2,3-dihydro-1H-inden-1-yl)pyrrolidin-3-yl]-2-methylphenyl}piperazin-1-yl)ethan-1-one], the IC50 in the test with Pfeiffer cells worked out at 302 nM; at EED it was 6.62 nM.
The like results for `CN(C)[C@H]1CN(C2CCc3cccc(F)c32)C[C@@H]1c1cn(C)c2c(C(=O)N3CCN(c4cccnn4)CC3)cccc12` (mixture of isomers) [Example 137, rac-{3-[(3S,4R)-4-(dimethylamino)-1-(7-fluoro-2,3-dihydro-1H-inden-1-yl)pyrrolidin-3-yl]-1-methyl-1H-indol-7-yl}[4-(pyridazin-3-yl)piperazin-1-yl]methanone] were, in that order, 299 nM and 1.91 nM.
The like results for `CN(C(=O)c1cccc2c([C@H]3CN(C4CCc5cccc(F)c54)C[C@@H]3N(C)C)cn(C)c12)C1CC(O)C1` (mixture of isomers) [Example 109, rac-3-[(3S,4R)-4-(dimethylamino)-1-(7-fluoro-2,3-dihydro-1H-inden-1-yl)pyrrolidin-3-yl]-N-(3-hydroxycyclobutyl)-N,1-dimethyl-1H-indole-7-carboxamide] were, in that order, 141 nM and 1.6 nM.
On the same counts, the results for `CN(C)[C@@H]1CN(C2CCc3cccc(F)c32)C[C@H]1c1ccc(-c2cnn(CC(=O)N3CC(O)C3)c2)nc1` (mixture of isomers) [Example 150, rac-2-(4-{5-[(3R,4S)-4-(dimethylamino)-1-(7-fluoro-2,3-dihydro-1H-inden-1-yl)pyrrolidin-3-yl]pyridin-2-yl}-1H-pyrazol-1-yl)-1-(3-hydroxyazetidin-1-yl)ethan-1-one] are 950 nM and 2.4 nM.
`CN(C)[C@H]1CN(C2CCc3cccc(F)c32)C[C@@H]1c1cn(C)c2c(C(=O)N3CCN4CCNC(=O)C4C3)cccc12` (mixture of isomers) [Example 134, rac-8-{3-[(3S,4R)-4-(dimethylamino)-1-(7-fluoro-2,3-dihydro-1H-inden-1-yl)pyrrolidin-3-yl]-1-methyl-1H-indole-7-carbonyl}hexahydro-2H-pyrazino[1,2-a]pyrazin-1(6H)-one]: the IC50 in the test with Pfeiffer cells is 833 nM; at EED it was 2.5 nM.
On the same counts, the results for `CN(C)[C@H]1CN(C2CCc3cccc(F)c32)C[C@@H]1c1cn(C)c2c(C(=O)O)cccc12` (mixture of isomers) [Example 80, rac-3-[(3S,4R)-4-(dimethylamino)-1-(7-fluoro-2,3-dihydro-1H-inden-1-yl)pyrrolidin-3-yl]-1-methyl-1H-indole-7-carboxylic acid] are 1520 nM and 9.44 nM.
Take `CN(C)C(=O)CN1CCN(c2ccc([C@@H]3CN(C4CCc5cccc(F)c54)C[C@H]3N(C)C)cn2)CC1` (mixture of isomers) [Example 147, rac-2-(4-{5-[(3R,4S)-4-(dimethylamino)-1-(7-fluoro-2,3-dihydro-1H-inden-1-yl)pyrrolidin-3-yl]pyridin-2-yl}piperazin-1-yl)-N,N-dimethylacetamide]: the results for the IC50 with Pfeiffer cells and at EED were 535 nM and 3.84 nM, respectively.
The like results for `CN(C)[C@H]1CN(C2CCc3cccc(F)c32)C[C@@H]1c1cn(C)c2c(C(=O)N3CCC[C@H]3CO)cccc12` (mixture of isomers) [Example 116, rac-{3-[(3S,4R)-4-(dimethylamino)-1-(7-fluoro-2,3-dihydro-1H-inden-1-yl)pyrrolidin-3-yl]-1-methyl-1H-indol-7-yl}[(2S)-2-(hydroxymethyl)pyrrolidin-1-yl]methanone] were, in that order, 99.6 nM and 1.77 nM.
The like results for `CN(C)[C@H]1CN(C2CCc3cc(F)cc(F)c32)C[C@@H]1c1cn(C)c2ccccc12` (mixture of isomers) [Example 95, rac-(3R,4S)-1-(5,7-difluoro-2,3-dihydro-1H-inden-1-yl)-N,N-dimethyl-4-(1-methyl-1H-indol-3-yl)pyrrolidin-3-amine] were, in that order, 1720 nM and 2.7 nM.
On the same counts, the results for `CC(=O)N1CCN(C(=O)c2ccc3c([C@H]4CN(C5CCc6cccc(F)c65)C[C@@H]4N(C)C)cn(C)c3c2)CC1` (mixture of isomers) [Example 123, rac-1-(4-{3-[(3S,4R)-4-(dimethylamino)-1-(7-fluoro-2,3-dihydro-1H-inden-1-yl)pyrrolidin-3-yl]-1-methyl-1H-indole-6-carbonyl}piperazin-1-yl)ethan-1-one] are 1530 nM and 3.53 nM.
Regarding `CN(C)[C@@H]1CN(C2CCc3cccc(F)c32)C[C@H]1c1ccc(N2CCNCC2)cc1` (mixture of isomers) [Example 41, rac-(3S,4R)-1-(7-fluoro-2,3-dihydro-1H-inden-1-yl)-N,N-dimethyl-4-[4-(piperazin-1-yl)phenyl]pyrrolidin-3-amine], the IC50 in the test on Pfeiffer cells turned out to be 188 nM; on EED it was 1.99 nM.
The like results for `CN(C)[C@H]1CN(C2CCc3cccc(F)c32)C[C@@H]1C1CCN(c2ccccc2)CC1` (mixture of isomers) [Example 146, rac-(3R,4S)-1-(7-fluoro-2,3-dihydro-1H-inden-1-yl)-N,N-dimethyl-4-(1-phenylpiperidin-4-yl)pyrrolidin-3-amine] were, in that order, 2900 nM and 4.58 nM.
On the same counts, the results for `CN(C)[C@H]1CN(C2CCc3cccc(F)c32)C[C@@H]1c1cn(C)c2c(C(=O)N3CC[C@H](O)C3)cccc12` (mixture of isomers) [Example 118, rac-{3-[(3S,4R)-4-(dimethylamino)-1-(7-fluoro-2,3-dihydro-1H-inden-1-yl)pyrrolidin-3-yl]-1-methyl-1H-indol-7-yl}[(3S)-3-hydroxypyrrolidin-1-yl]methanone] are 298 nM and 3.35 nM.
The like results for `CN(C)[C@@H]1CN(C2CCc3cccc(F)c32)C[C@H]1c1ccc(-c2ncco2)cc1` (mixture of isomers) [Example 66, rac-(3S,4R)-1-(7-fluoro-2,3-dihydro-1H-inden-1-yl)-N,N-dimethyl-4-[4-(1,3-oxazol-2-yl)phenyl]pyrrolidin-3-amine] were, in that order, 1130 nM and 2.68 nM.
Consider `CN(C)[C@@H]1CN([C@H]2CC(O)c3cccc(F)c32)C[C@H]1c1ccc(S(C)(=O)=O)cc1` (stereo partly drawn) [Example 33, (3S)-3-{(3S,4R)-3-(dimethylamino)-4-[4-(methanesulfonyl)phenyl]pyrrolidin-1-yl}-4-fluoro-2,3-dihydro-1H-inden-1-ol], for which the IC50 on EED was more than 50000 nM.
Still for that read-out and setting: for `CN(C)[C@@H]1CN(C2CCc3cccc(F)c32)C[C@H]1c1ccc(N2CCNCC2)nc1` (mixture of isomers) [Example 145, rac-(3S,4R)-1-(7-fluoro-2,3-dihydro-1H-inden-1-yl)-N,N-dimethyl-4-[6-(piperazin-1-yl)pyridin-3-yl]pyrrolidin-3-amine] the value was 5.2 nM; for `CN(C)[C@H]1CN(C2CCc3cccc(F)c32)C[C@@H]1c1cn(C)c2cc(N3CCN(S(C)(=O)=O)CC3)ccc12` (mixture of isomers) [Example 120, rac-(3R,4S)-1-(7-fluoro-2,3-dihydro-1H-inden-1-yl)-4-{6-[4-(methanesulfonyl)piperazin-1-yl]-1-methyl-1H-indol-3-yl}-N,N-dimethylpyrrolidin-3-amine], 3.46 nM.
Same read-out and setting: for `CN(C)[C@H]1CN(C2CCc3cccc(F)c32)C[C@@H]1c1ccc(C(=O)N2CCN(S(C)(=O)=O)CC2)cc1` (mixture of isomers) [Example 53, rac-{4-[(3S,4R)-4-(dimethylamino)-1-(7-fluoro-2,3-dihydro-1H-inden-1-yl)pyrrolidin-3-yl]phenyl}[4-(methanesulfonyl)piperazin-1-yl]methanone] the value was 12.3 nM; for `Cc1coc(-c2ccc([C@@H]3CN(C4CCc5cccc(F)c54)C[C@H]3N(C)C)cc2)n1` (mixture of isomers) [Example 69, rac-(3S,4R)-1-(7-fluoro-2,3-dihydro-1H-inden-1-yl)-N,N-dimethyl-4-[4-(4-methyl-1,3-oxazol-2-yl)phenyl]pyrrolidin-3-amine], 3.89 nM.
